The text below walks through data of patent US9310660B2, “Organic compound and electrochromic element including the same” (CANON KABUSHIKI KAISHA, priority 2013, dated 2016).

Data set [1] is described as follows: Solubility in propylene carbonate. It is filed as physicochemical. The settings on record: organic solvent or mixture. The method, then:
The solubilities of three compounds: Compound A-1 prepared in Example 1, Compound B-1 prepared in Example 2, and pyridinium salt precursor Ref-1 of Compound A-1 as a comparative example, in propylene carbonate, a solvent for an EC element, were measured.
Compound Ref-1 as a comparative example has a structure in which the pyridinium salt moiety of Compound A-1 is replaced by a non-ionized structure, a pyridyl group. The molecular structure is shown below.

The nature of data set [2]: Ultraviolet and visible absorption spectrum in chloroform. The data set is classed as physicochemical. The settings on record: dissolved in chloroform, neutralized state. The procedure: The resulting exemplified compound A-1 was dissolved in chloroform. The absorption spectrum of the solution was measured with an ultraviolet and visible spectrometer (V-560, manufactured by JASCO Corp.) and is shown in FIG. 2.
The resulting exemplified compound B-1 was dissolved in chloroform. The absorption spectrum of the solution was measured as in Example 1.

In the case of `Cc1cc(C)c(-c2cc3sc4cc(-c5cccc(-c6cc[n+](Cc7ccccc7)cc6)c5)sc4c3s2)c(C)c1` [Compound A-1], in data set [1], the solubility was not below 300 mM. For the same molecule, in data set [2], the “maximum absorption peak λmax” value worked out at 355.5 nm.

Take `Cc1c(-c2cccc(-c3cc[n+](Cc4ccccc4)cc3)c2)sc(-c2cccc(-c3cc[n+](Cc4ccccc4)cc3)c2)c1C` [Compound B-1]: the solubility in data set [1] is not below 75 mM. Further, the “maximum absorption peak λmax” value in data set [2] was 311.5 nm.

Consider `Cc1cc(C)c(-c2cc3sc4cc(-c5cccc(-c6ccncc6)c5)sc4c3s2)c(C)c1` [Ref-1, reference compound], for which the solubility in data set [1] is not above 8 mM.
